Positions of bridges follow the written chain, without caps; N, C: chain ends. Residues, ends and D or L forms follow the SMILES beside them.
Key:
S. enterica KCTC2514 = experiment: Ultrasensitive radial diffusion assay (URDA), MEC; format: cell-based, Salmonella enterica; conditions: S. enterica KCTC2514, Gram -, pH 6.6, 37 °C, triplicate, averaged
Procedure: (§1) The antimicrobial activity of the AOD analogs was assessed with an ultrasensitive radial diffusion assay (URDA), as described previously. The antimicrobial activity of the analogs (from 31.3 to 1000 μg/mL, 5 μL volume) was tested against several bacteria, including Bacillus subtilis KCTC1021, Streptococcus mutans KCCM40105, Aeromonas hydrophila KCTC2358, Escherichia coli D31, E. coli ML35p, Pseudomonas aeruginosa KCTC2004, Salmonella enterica KCTC2514, and Shigella sonnei KCTC2009. In addition, Cutibacterium acnes KCTC3314, Staphylococcus epidermidis KCTC1917, and Candida albicans KCTC7965 were used for the anti-acne activity test. All except C. acnes KCTC3314 were grown overnight for 18 h in tryptic soy broth (TSB; for bacteria) or Sabouraud dextrose broth (SDB; for C. albicans) at the appropriate temperature (25 °C for A. hydrophila, 37 °C for the others). C. acnes was grown for 72 h in reinforced clostridial medium (RCM) under anaerobic conditions with an anaerobic gas-generating pouch (GasPak EZ; Becton Dickinson and Company, Sparks, MD, USA) at 37 °C. Following overnight or 72-h incubation, the bacterial and C. albicans suspensions were diluted to a McFarland turbidity standard level of 0.5 (Vitek Colorimeter #52-1210; Hach, Loveland, CO, USA) corresponding to approximately 10^8 colony forming units (CFU)/mL for bacteria and 10^6 CFU/mL for C. albicans. Diluted bacterial or C. albicans suspension (0.5 mL) was added to 9.5 mL underlay gel containing 5 × 10^6 or 5 × 10^4 CFU/mL in 10 mM phosphate buffer (pH 6.6) with 0.03% TSB (or RCM) or 0.03% SDB and 1% Type I low-electroendosmosis agarose. The AOD analogs were serially diluted two-fold in 5 µL acidified water (0.01% acetic acid; HAc) and each dilution was added to 2.5-mm diameter wells in the 1-mm thick underlay gel. After incubation for 3 h at either 25 °C (for A. hydrophila) or 37 °C (for the others), the bacterial or yeast suspension was overlaid with 10 mL double-strength overlay gel containing 6% TSB, RCM, or SDB with 10 mM phosphate buffer (pH 6.6) in 1% agarose. Plates were incubated for an additional 18–24 h (72 h for C. acnes) and the clearing zone diameters were measured. After subtracting the diameter of the well (2.5 mm), the clearing zone diameter was expressed in units (0.1 mm = 1 U).
(§2) The minimal effective concentration (MEC; μg/mL) of the AOD analogs was calculated as the X-intercept of a plot of clearing zone diameter units against the log10 of the peptide concentration. Piscidin 1, an α-helical AMP isolated from hybrid striped bass (Morone saxatilis × Morone chrysops) was used as a positive control.

C. acnes KCTC3314 = experiment: Ultrasensitive radial diffusion assay (URDA), MEC; format: cell-based, Cutibacterium acnes; conditions: C. acnes KCTC3314, Gram +, anaerobic, RCM, 72 h, 37 °C, triplicate, averaged
Procedure: as §1, §2

[1] = test system: 100-bp DNA ladder and DNA polymerase; experiment: Competitive binding between DNA and DNA polymerase; conditions: 1 μg peptide, 0.2 μg 100-bp DNA ladder, DNA polymerase 1.0 μL (5 units/μL), 37 °C, 60 min
Procedure: To assess the preferential binding ability of the AOD analogs to DNA or DNA polymerase, a competitive binding assay was performed. Briefly, AOD analog was added to a reaction mixture containing DNA or DNA polymerase and incubated for 60 min at 37 °C. […] Piscidin 1 and 0.01% HAc were the positive and negative controls, respectively.

S. epidermidis KCTC1917 = experiment: Ultrasensitive radial diffusion assay (URDA), MEC; format: cell-based, Staphylococcus epidermidis; conditions: S. epidermidis KCTC1917, Gram +, pH 6.6, 37 °C, triplicate, averaged
Procedure: as §1, §2

[2] = test system: E. coli DH5α genomic DNA (16S ribosomal gene); experiment: DNA amplification (PCR) inhibition assay; format: biochemical, Escherichia coli; conditions: 1.5 µg of each analog, 0.2 µg E. coli DH5α gDNA, 30 cycles
Procedure: To determine whether AOD analogs target DNA amplification, the ability of the analogs to inhibit DNA amplification was assessed using E. coli DH5α genomic DNA (gDNA). Total gDNA was extracted using the phenol–chloroform method, as described previously. To assess the inhibition of DNA amplification, 1.5 µg AOD analog was added to the polymerase chain reaction (PCR) mixture. The PCR solution consisted of 0.2 µg purified gDNA, 5 µL 10× PCR buffer with MgCl2, 4 µL of each dNTP at 2.5 mM, 0.25 μL Ex Taq polymerase (Takara Bio, Shiga, Japan), 2.0 pmol each of primers 27F (5′-[…]-3′) and 1492R (5′-TACGGCTACCTTGTTACGA-CTT-3′), and up to 50 µL sterile distilled water. The PCR thermal cycling conditions were as follows: initial denaturation at 94 °C for 5 min; 30 cycles of 94 °C for 30 s, 55 °C for 30 s, and 72 °C for 2 min; and a final extension for 10 min at 72 °C. PCR was conducted using a Type 9700 Thermal Cycler (Perkin-Elmer, Norwalk City, CA, USA). The PCR products were confirmed through 1.5% agarose gel electrophoresis with 0.5 μg/mL EtBr. Piscidin 1 was used as a positive control and 0.01% HAc was used as a negative control.

B. subtilis KCTC1021 = experiment: Ultrasensitive radial diffusion assay (URDA), MEC; format: cell-based, Bacillus subtilis; conditions: B. subtilis KCTC1021, Gram +, 10 mM phosphate buffer pH 6.6, 37 °C, X-intercept of clearing zone vs log10 concentration, triplicate, averaged
Procedure: as §1, §2

E. coli ML35p = experiment: Ultrasensitive radial diffusion assay (URDA), MEC; format: cell-based, Escherichia coli; conditions: Gram -, pH 6.6, 37 °C, triplicate, averaged
Procedure: as §1, §2

E. coli D31 = experiment: Ultrasensitive radial diffusion assay (URDA), MEC; format: cell-based, Escherichia coli; conditions: E. coli D31, Gram -, pH 6.6, 37 °C, triplicate, averaged
Procedure: as §1, §2

S. mutans KCCM40105 = experiment: Ultrasensitive radial diffusion assay (URDA), MEC; format: cell-based, Streptococcus mutans; conditions: S. mutans KCCM40105, Gram +, pH 6.6, 37 °C, triplicate, averaged
Procedure: as §1, §2

V. parahaemolyticus gDNA = experiment: Bacterial gDNA binding (electrophoretic mobility shift); set-up: species or system Vibrio parahaemolyticus; conditions: 1 μg of analog with V. parahaemolyticus gDNA, agarose gel
Procedure: To evaluate the binding ability of the AOD analogs to intracellular components, a DNA binding assay was performed as previously described with minor modifications. The DNA-binding ability of the AOD analogs was assessed through observation of the inhibition of migration of DNA bands through agarose gels. […] HAc (0.01%) was used as a negative control.

C. albicans KCTC7965 = experiment: Ultrasensitive radial diffusion assay (URDA), MEC; format: cell-based, Candida albicans; conditions: C. albicans KCTC7965, yeast, SDB, pH 6.6, 37 °C, triplicate, averaged
Procedure: as §1, §2

A. hydrophila KCTC2358 = experiment: Ultrasensitive radial diffusion assay (URDA), MEC; format: cell-based, Aeromonas hydrophila; conditions: A. hydrophila KCTC2358, Gram -, pH 6.6, 25 °C, triplicate, averaged
Procedure: as §1, §2

P. aeruginosa KCTC2004 = experiment: Ultrasensitive radial diffusion assay (URDA), MEC; format: cell-based, Pseudomonas aeruginosa; conditions: P. aeruginosa KCTC2004, Gram -, pH 6.6, 37 °C, triplicate, averaged
Procedure: as §1, §2

100-bp DNA ladder = experiment: DNA binding assay (electrophoretic mobility shift); conditions: 1 μg analog with 0.2 μg 100-bp DNA ladder, 37 °C, 60 min, 1.8% agarose gel with EtBr
Procedure: To evaluate the binding ability of the AOD analogs to intracellular components, a DNA binding assay was performed as previously described with minor modifications. The DNA-binding ability of the AOD analogs was assessed through observation of the inhibition of migration of DNA bands through agarose gels. A commercial 100-bp DNA ladder (0.2 μg) (Bioneer Corp., Daejeon, South Korea) was mixed with each analog (1 μg) in 0.01% acetic acid, and the resulting mixture was incubated at 37 °C for 60 min and then electrophoresed on 1.8% agarose gels containing 0.5 μg/mL ethidium bromide (EtBr). HAc (0.01%) was used as a negative control.
To determine the concentration required for the interaction of AOD analogs with DNA, a DNA binding assay was performed with various mixing ratios of analog A3 (0.25–1.0 μg/mL) and 100-bp DNA ladder (0.1–0.4 μg), as described above.

S. sonnei KCTC2009 = experiment: Ultrasensitive radial diffusion assay (URDA), MEC; format: cell-based, Shigella sonnei; conditions: S. sonnei KCTC2009, Gram -, pH 6.6, 37 °C, triplicate, averaged
Procedure: as §1, §2

several microorganisms = conditions: analog peptides from the C-terminus of MGD-1; cited from earlier work
Description: This peptide contains three disulfide bridges linked with six cysteine (Cys) residues, which contribute to its structural stability. For the development of potential AMPs from AOD, the AOD molecule may be inappropriate due to its complex structure containing six Cys residues and long sequence length (38 residues), which complicate the recreation of its structure and increase production costs. In a previou ...

[3] = test system: human red blood cells (RBCs; blood type B); conditions: 3% hematocrit, 3.13–100 μg/mL, 60 min, 37 °C, absorbance 542 nm, triplicate

| Compound | Minimal Effective Concentration (S. enterica KCTC2514) [µg/mL] | Minimal Effective Concentration (C. acnes KCTC3314) [µg/mL] | competitive binding between DNA and DNA polymerase (electrophoretic mobility of DNA) [1] | Minimal Effective Concentration (S. epidermidis KCTC1917) [µg/mL] | inhibition of DNA amplification (PCR) [2] | Minimal Effective Concentration (B. subtilis KCTC1021) [µg/mL] | Minimal Effective Concentration (E. coli ML35p) [µg/mL] | Minimal Effective Concentration (E. coli D31) [µg/mL] | Minimal Effective Concentration (S. mutans KCCM40105) [µg/mL] | electrophoretic mobility of V. parahaemolyticus gDNA (V. parahaemolyticus gDNA) | Minimal Effective Concentration (C. albicans KCTC7965) [µg/mL] | Minimal Effective Concentration (A. hydrophila KCTC2358) [µg/mL] | Minimal Effective Concentration (P. aeruginosa KCTC2004) [µg/mL] | electrophoretic mobility of the DNA (DNA-binding ability) (100-bp DNA ladder) | Minimal Effective Concentration (S. sonnei KCTC2009) [µg/mL] | antimicrobial activity (in words) (several microorganisms) | hemolytic activity [3] |
| --- | --- | --- | --- | --- | --- | --- | --- | --- | --- | --- | --- | --- | --- | --- | --- | --- | --- |
| N=C(N)NCCC[C@@H]1NC(=O)[C@H](CCCNC(=N)N)NC(=O)[C@H](CCCNC(=N)N)NC(=O)[C@H](CCCNC(=N)N)NC(=O)[C@H](Cc2c[nH]c3ccccc23)NC(=O)[C@H](CCCNC(=N)N)NC(=O)[C@H](CCCNC(=N)N)NC(=O)[C@@H](N)CSSC[C@@H](C(=O)O)NC1=O [Analog A3] (H-CRRWRRRRC-OH; disulfide 1-9) | 6.5 | 53.7 | inhibited | 4.2 | partially or completely inhibited | 0.4 | 6.8 | 5.0 | 1.5 | inhibited | 54.0 | 3.3 | 3.0 | inhibited | 5.5 | – | – |
| N=C(N)NCCC[C@@H]1NC(=O)[C@H](CCCNC(=N)N)NC(=O)[C@H](Cc2c[nH]c3ccccc23)NC(=O)CNC(=O)[C@H](Cc2c[nH]c3ccccc23)NC(=O)[C@H](CCCNC(=N)N)NC(=O)[C@H](CCCNC(=N)N)NC(=O)[C@@H](N)CSSC[C@@H](C(N)=O)NC1=O [Analog A4] (H-CRRWGWRRC-NH2; disulfide 1-9) | – | 27.1 | inhibited | 15.8 | partially or completely inhibited | 2.5 | 2.2 | 5.7 | 10.5 | inhibited | 17.2 | – | 29.5 | inhibited | – | – | – |
| CGGWHRLRC [analog peptide derived from the C-terminus (loop 3) of MGD-1] | – | – | – | – | – | – | – | – | – | – | – | – | – | – | – | potent antimicrobial activity | – |
| CKKWKRKRC [Lys-substituted analog peptide derived from …] | – | – | – | – | – | – | – | – | – | – | – | – | – | – | – | stronger antibacterial activity than the parent analog peptide | – |
| Piscidin 1: α-helical AMP isolated from hybrid striped bass, used as a positive control (FFHHIFRGIVHVGKTIHRLVTG) [reference compound] | 4.6 | – | preferentially binds to DNA polymerase over DNA | – | did not inhibit | 2.3 | 2.3 | 2.0 | 3.2 | – | 11.8 | 9.1 | 8.0 | – | 8.6 | – | strong hemolysis, even at very low concentrations (from 6.25 μg/mL) |
